From US20250270576A1, “AGRICULTURAL COMPOSITIONS AND METHODS OF USING THE SAME” (Arizona Board of Regents on behalf of Arizona State …, priority 2021, published 2025) come the findings set out here.

In the assay the test system is Col-0 plants. Description: growth of wild type plants in the presence of 2,3 butanediol. The assay is classed as in vivo, Arabidopsis thaliana. An excerpt:
Top left: phenotypes of Col-0 (wild type; Arabidopsis thaliana) and genetically modified plants expressing the transgenic PROTON (H+-) pyrophosphatase in all tissues (AVP1) or in phloem cells only (pCoY), where average yields are AVP1>pCoY>Col-0 (FIG. 7). Left center: differential root acidification capacity of each genotype. Left bottom: 16S rRNA based composition of the root associated microbiomes (RAMs) through principal component analyses. Middle: Metabolomic profile of root exudates of the three plant genotypes, depicted as a heat map of relative concentration (each column a pools n>3 plants). Top right: Enrichment of proportional abundance of query and control pathways in the metagenome of rhizosphere RAMs. Middle right: Effect of exposure to 250 μM 2,3-butanediol on root development of Col-0 plants. Bottom right: mechanistic model for plant-microbe interactions at the base of phenotype enhancement and transferability.
To determine how the plant genotype can be made extensive to the RAM, we made use of a second mutant plant (pCoYMV::AVP1; pCoY hereafter), which overexpresses the H+-PPase in companion cells and sieve elements of the plant's phloem (22). […] We then assessed a second potential driver: root exudates. We determined the root exudate profiles, or exometabolome (23), of the three genotypes when grown under sterility on agar-solidified medium. […]

Consider `CC(O)C(C)O` (centres unmarked) [2,3 butanediol, 2,3-butanediol], for which the “phenotype in root development of wild type plants” value (wild type (Col-0) plants exposed to 250 μM 2,3-butanediol (FIG. 3)) is on record as “AVP1-like, high yield phenotypes”. For the same compound, the “phenotype in shoots of wild type plants” value (wild type (Col-0) plants grown in the presence of 2,3 butanediol, 250 μM per FIG. 3 legend) is listed as “AVP1-like, high yield phenotypes”.
